In patent publication US6399568B1, “Cyclic tetrapeptide derivatives and medicinal use thereof” (Japan Energy Corporation, priority 1997, dated 2002):
Non-standard residues stand in square brackets, D forms with d. Residues, ends and D or L forms follow the SMILES beside them. ξ: configuration not given here. *: point of attachment. Asu = N[C@@H](CCCCCC(=O)O)C(=O)O; ξPip = O=C(O)C1CCCCN1; NHOH = ON*

How the values were obtained:
B16/BL6 cells [1] = assay: MHC class-I molecule expression promoting activity; type: cell-based, mouse; conditions: for MHC class-I molecule expression promoting action: FIGS. 3 and 4, dependence on concentration of addition; for Twice Promoting Concentration Cx2: concentration at which MHC class-I expression is twice that without addition; for Twice Promoting Concentration Cx2 / conc. for 2-fold expression (nM) mean: 72 hours; for conc. for 2-fold expression (nM) mean: mean of a plurality of assays
Method: The cancer cells used were mouse melanoma cells, B16/BL6 cells, provided by, the National Cancer Institute, U.S.A. Said cells were cultivated in MEM media supplemented with 10% FBS at 37° C. in the presence of 5% carbon dioxide in an humidified incubator.
A compound to be tested was preliminarily dissolved in dimethyl sulfoxide (DMSO) and adjusted to a concentration of 100 mM or 10 mM (source solution).
Said B16/BL6 cells were inoculated on 96 well microplate at a cell density of 5000 cells per well, each well containing 200 μl of said medium. […] Thereafter, each well was once washed with PBS (phosphate buffered saline) and floating cells and the medium were removed. Then, the well was treated with 0.1% glutaraldehyde solution for 3 minutes to fix the cells.
The amount of MHC class-I molecule expressed on the surface of the fixed cells was measured by the following method. Anti-H-2K^bD^bD^d antibody, which is an antibody against mouse MHC classI molecule (commercially available from Meiji Milk Co., Ltd), was used as a primary antibody, biotinylated anti-mouse IgG+M (commercially available from Chemicon) was used as a secondary antibody, and streptavidin-β-galactosidase conjugate (commercially available from BRL) was reacted as a labelling enzyme. The amount of the thus labelled enzyme β-galactosidase was measured in a microplate reader by recording the fluorescent intensity (excitation: 365 nm, fluorescence: 450 nm) derived from the enzymaticreaction product using 4-methylumbelliferyl-β-D-galactoside (commercially available from Nacalai Tesque) as a substrate. […] The value obtained by subtracting said background level from the, actually measured value (an apparent value including the background level) was the true measurement reflecting the amount of expressed MHC class-I molecule.
A group without the addition of any compound to be tested was used as a reference group and the measurement of MHC class-I molecule expressed in said group was used as a standard value. The amount of MHC class-I molecule expressed at a concentration of addition of each test compound is shown as a relative amount, said standard value taken as one (1). For each compound to be tested, various concentrations of addition were selected to investigate the dependency of MHC class-I molecule expression promoting action on the concentration of addition.

B16/BL6 cells [2] = assay: Inhibitory effect on cell proliferation (MTS, 48 hours); type: cell-based, mouse; conditions: 48 hours after addition; read-out: 50% inhibiting concentration
Text: (§1) In order to verify the action of the cyclic tetrapeptide derivative according to the present invention in inhibiting cell proliferation in cancerized cells, the action on the proliferation of the aforementioned B16/BL6 cells was investigated. The evaluation of cell proliferation rates was done utilizing a commercially available measuring kit, specifically, from Promega under the trade name CellTiter 96 Aqueous Non-Radioactive Proliferation Assay Kit. In the measuring kit, the amount of products through reduction of a reagent tetrazolium compound (3-(4,5-dimethylthiazol-2-yl)-5-(3-carboxymethoxyphenyl)-2-(4-sulfophenyl)-2H-tetrazolium, inner salt; MTS) by viable animal cells is determined by detecting spectrophotometrically the color generated from the products. Since the amount of products is proportional to the amount of viable cells, this kit is utilized to evaluate the amount of viable cells.
(§2) According to the procedure of Test Example 1, B16/BL6 cells are inoculated in a 96 well microplate and cultured for 24 hours. Then, 10 μl of a solution of the source solution of a compound to be tested which has been diluted to a predetermined amount per well is added. Thereafter, culture is continued for additional 48 hours and 20 μl of a reagent solution in the aforementioned CellTiter 96 Aqueous Non-Radioactive Proliferation Assay Kit is then added. After incubation is continued at 37° C. for 1 hour, the amount of color generation is measured as an absorbance at 490 n musing a microplate reader.
(§3) The amount of cell proliferation of a group to which a compound to be tested is added is expressed in a relative value as compared to the standard cell proliferation (100%) in a control group to which no compound to be tested is added. For each compound tested, the amounts of cell proliferation were measured at different concentrations of addition and the dependence of the quantitative cell proliferation on the concentration of addition was investigated. From the results, a concentration of addition at which the amount of cell proliferation was inhibited by 50% relative to the amount of cell proliferation in the control group without addition was determined.

[3] = system: colon cancer Colon26 cell line; assay: Cell proliferation inhibition (72 hours); type: cell-based, mouse; conditions: read-out: 50% proliferation inhibiting concentration Colon 26 (nM) mean
Text: as §1, §2, §3
(§4) The test method was in accordance with the above-mentioned procedure, except that the period of incubation after the addition of a compound was 72 hours.
(§5) As illustrative examples, results are shown for an evaluation using mouse malignant melanoma B16/BL6 and B16 cell lines; leukemia L1210 cell line, colon cancer Colon26 cell line, and liver cancer MH134 cell line as cancer cells. For the cell proliferation inhibiting action of each compound tested for these cancer cells, 50% proliferation inhibiting concentrations are shown in Table 4.

leukemia L1210 cell line = assay: Cell proliferation inhibition (72 hours); type: cell-based, mouse; conditions: read-out: 50% proliferation inhibiting concentration L1210 (nM) mean
Text: as §1, §2, §3, §4, §5

[4] = system: liver cancer MH134 cell line; assay: Cell proliferation inhibition (72 hours); type: cell-based, mouse; conditions: read-out: 50% proliferation inhibiting concentration MH134 (nM) mean
Text: as §1, §2, §3, §4, §5

[5] = system: mouse malignant melanoma B16/BL6 cell line; type: cell-based; conditions: 72 hours; read-out: 50% proliferation inhibiting concentration B16/BL6 (nM) mean
Text: as §1
as §2, with “Then, 10 μl of a solution of the source solution of a compound to be tested which has been diluted to a predetermined amount per well is added.” left out
as §3, with “investigated.” for “investigated. From the results, a concentration of addition at which the amount of cell proliferation was inhibited by 50% relative to the amount of cell proliferation in the control group without addition was determined.”
as §4

[6] = system: mouse malignant melanoma B16 cell line; assay: Cell proliferation inhibition (72 hours); type: cell-based; conditions: read-out: 50% proliferation inhibiting concentration B16 (nM) mean
Text: as §1, §2, §3, §4, §5

B16/BL6 cells [7] = assay: Inhibitory effect on histone deacetylation in cells (AUT gel electrophoresis); type: cell-based, mouse; conditions: Example 1 added at 10 μM, trichostatin A at 1 μM; 6 hours; histone H4 bands
Method: In a culture flask of 75 ml in capacity, 1.5×10^5 B16/BL6 cells were inoculated and preliminarily cultured for 4 days. Then, a given amount of a compound to be tested was added and subsequently cultured for 6 hours. Thereafter, cells were striped using 0.25% trypsin enzyme solution, washed once with PBS and stored temporarily at −80° C.
From this cell sample, histone was separated from chromatin and collected together with other proteins in a conventional manner. The resulting protein sample was subjected to AUTgel electrophoresis in an amount of 1 μg/lane. Said gel was stained with silver to detect bands separated by the migration.
The result on a control group in which no compound to be tested was added is also shown.

histone deacetylase = assay: Histone deacetylase enzyme inhibiting activity, synthetic peptide substrate; type: biochemical, mouse; conditions: enzyme from B16/BL6 cells; [3H]acetylated histone H4 peptide; 37° C. 3 hours
Method: The preparation of histone deacetylase was performed essentially according to the method of Yoshida et al. (J. Biol. Chem., 265,17174-17179, 1990). The enzyme to be used was partially purified from B16/BL6 cells. The cells were suspended in HDA buffer (15 mM potassium phosphate, 5% glycerol, 0.2 mM EDTA, […], pH 7.5), homogenized and centrifuged (2500×g, 10 min) to collect the nuclei, which in turn were homogenized in the same buffer containing 1 M (NH4)2SO4. After ultrasonic disruption and centrifugation, the concentration of (NH4)2SO4 in the collected supernatant was increased to 3.5 M to precipitate histone deacetylase. This precipitate was redissolved in HDA buffer, subjected to gel filtration to replace the solvent with HDA buffer, and used as a crude histone deacetylase enzyme solution.
As a substrate, a synthetic substrate peptide, [^3H]acetylated histone H4 peptide was used. This [^3H]acetylated histone H4 peptide was obtained by synthesizing the N-terminal peptide of histone H4; […] (the C-terminal being cysteine) and radio-acetylating with ^3H -acetic anhydride.
An assay was performed by incubating the synthetic substrate solution and the enzyme solution at 37° C. for 3 hours in the presence of a compound to be tested (reaction volume, 100 μl). The reaction was stopped by adding 25 μl of 1 M HCl and 0.2 M acetic acid and [^3H]acetate excised by the enzyme reaction was extracted with ethyl acetate for radioactivity measurement. As a control group, the same procedure was repeated without addition of any test compound to the reaction system. The inhibiting activity was expressed by a concentration at which the histone deacetylase enzyme activity in the control group was inhibited by 50% (50% inhibiting concentration).

[8] = molecular target: Mouse histone deacetylase; type: biochemical
Method: In an enzyme system using a radio-labelled acetylated histone as a substrate, histone deacetylase enzyme inhibiting activity was evaluated. The basic conditions were in accordance with the method of Yoshida et al. (J. Biol. Chem., 265, 17174-17179, 1990).
Mouse histone deacetylase to be used was partially purified from FM3A cells. Cells were suspended in HDA buffer (15 mM potassium phosphate, 5% glycerol, 0.2 mM EDTA, pH 7.5), homogenized and centrifuged (35000×g, 10 min) to collect the nuclei which in turn were homogenized in the same buffer containing 1 M (NH4)2SO4. After ultrasonic disruption and centrifugation, the concentration of (NH4)2SO4 in the supernatant was increased to 3.5 M to precipitate deacetylase enzyme proteins. This precipitate was redissolved in HDA buffer, dialyzed against HDA buffer, applied to DEAE-cellulose column and eluted in NaCl gradient. Active fractions were used as a histone deacetylase enzyme solution.
As a substrate, [^3H]acetyl histone was used. In a culture solution of FM3A cells in the presence of 5 mM sodium n-butyrate, [^3H]acetate was added, followed by incubation for 30 minutes to radio-label the histone. The histone was prepared in a conventional manner and used as a substrate solution.
An assay was performed by adding a compound to be tested at a given concentration while using a no-addition control group, and by incubating the substrate solution and the enzyme solution at 37° C. for 10 minutes (reaction volume, 100 μl). The enzyme reaction was stopped by adding 10 μl of concentrated hydrochloric acid and the excised [^3H]acetate was extracted with ethyl acetate for radioactivity measurement. The inhibiting activity was expressed by a concentration at which the enzyme activity in the control group was inhibited by 50% (50% inhibiting concentration).

Compound	MHC class-I molecule expression promoting action (B16/BL6 cells [1])	Twice Promoting Concentration Cx2 (B16/BL6 cells [1]) [nM]	conc. for 2-fold expression (nM) mean (B16/BL6 cells [1]) [nM]	IC50 (B16/BL6 cells [2]) [nM]	IC50 [3] [nM]	IC50 (leukemia L1210 cell line) [nM]	IC50 [4] [nM]	IC50 [5] [nM]	IC50 [6] [nM]	MHC class-I molecule expression promoting activity (B16/BL6 cells [1]; allowed to act on animal cells (summary statement))	inhibitory effect on histone deacetylation (B16/BL6 cells [7])	IC50 (histone deacetylase) [nM]	IC50 [8] [nM]
CC(C)C[C@@H]1NC(=O)[C@@H](Cc2ccccc2)NC(=O)[C@H](CCCCCC(=O)NO)NC(=O)C2CCCCN2C1=O (stereo partly drawn) [HDA-12, cyclo(-Asu(NHOH)-D-Phe-Leu-Pip-)] (cyclo([Asu](NHOH)[dF]L[ξPip]))	exhibited MHC class-I molecule expression promoting action	3.86	2.75	12.3	149	28.3	112	9.44	262	–	–	–	–
CC(/C=C/C(=O)NO)=C\[C@@H](C)C(=O)c1ccc(N(C)C)cc1 [Trichostatin A, trichostatin A, reference compound]	MHC class-I molecule expression promoting action was confirmed	3.35	–	14.3	139	12.4	41.7	19.1	621	promotes the expression of MHC class-I molecule	a total of 5 discrete bands are clearly seen in this region	2.55	–
O=C(CCCCC[C@@H]1NC(=O)[C@H]2CCCN2C(=O)[C@H](Cc2ccccc2)NC(=O)[C@H](Cc2ccccc2)NC1=O)NO [HDA-5, cyclo(-Asu(NHOH)-Phe-Phe-D-Pro-)] (cyclo([Asu](NHOH)FF[dP]))	exhibited MHC class-I molecule expression promoting action	135	98.2	210	2160	500	1660	257	3370	–	inhibits the deacetylation of histone	6.03	2.18
